{"source": "ChEMBL document CHEMBL2073762", "about": "“Carrier-mediated mechanism for the biliary excretion of the quinolone antibiotic grepafloxacin and its glucuronide in rats” (J Pharmacol Exp Ther, 1998)", "molecules": {"B1": {"name": "ATP-binding cassette sub-family C member 2 (Rattus norvegicus) (protein)", "chain": "MDKFCNSTFWDLSLLESPEADLPLCFEQTVLVWIPLGFLWLLAPWQLYSVYRSRTKRSSITKFYLAKQVFVVFLLILAAIDLSLALTEDTGQATVPPVRYTNPILYLCTWLLVLAVQHSRQWCVRKNSWFLSLFWILSVLCGVFQFQTLIRALLKDSKSNMAYSYLFFVSYGFQIVLLILTAFSGPSDSTQTPSVTASFLSSITFSWYDRTVLKGYKHPLTLEDVWDIDEGFKTRSVTSKFEAAMTKDLQKARQAFQRRLQKSQRKPEATLHGLNKKQSQSQDVLVLEEAKKKSEKTTKDYPKSWLIKSLFKTFHVVILKSFILKLIHDLLVFLNPQLLKLLIGFVKSSNSYVWFGYICAILMFAVTLIQSFCLQSYFQHCFVLGMCVRTTVMSSIYKKALTLSNLARKQYTIGETVNLMSVDSQKLMDATNYMQLVWSSVIQITLSIFFLWRELGPSILAGVGVMVLLIPVNGVLATKIRNIQVQNMKNKDKRLKIMNEILSGIKILKYFAWEPSFQEQVQGIRKKELKNLLRFGQLQSLLIFILQITPILVSVVTFSVYVLVDSANVLNAEKAFTSITLFNILRFPLSMLPMVTSSILQASVSVDRLERYLGGDDLDTSAIRRVSNFDKAVKFSEASFTWDPDLEATIQDVNLDIKPGQLVAVVGTVGSGKSSLVSAMLGEMENVHGHITIQGSTAYVPQQSWIQNGTIKDNILFGSEYNEKKYQQVLKACALLPDLEILPGGDMAEIGEKGINLSGGQKQRVSLARAAYQDADIYILDDPLSAVDAHVGKHIFNKVVGPNGLLAGKTRIFVTHGIHFLPQVDEIVVLGKGTILEKGSYRDLLDKKGVFARNWKTFMKHSGPEGEATVNNDSEAEDDDDGLIPTMEEIPEDAASLAMRRENSLRRTLSRSSRSSSRRGKSLKNSLKIKNVNVLKEKEKEVEGQKLIKKEFVETGKVKFSIYLKYLQAVGWWSILFIILFYGLNNVAFIGSNLWLSAWTSDSDNLNGTNNSSSHRDMRIGVFGALGLAQGICLLISTLWSIYACRNASKALHGQLLTNILRAPMRFFDTTPTGRIVNRFSGDISTVDDLLPQTLRSWMMCFFGIAGTLVMICMATPVFAIIIIPLSILYISVQVFYVATSRQLRRLDSVTKSPIYSHFSETVTGLPIIRAFEHQQRFLAWNEKQIDINQKCVFSWITSNRWLAIRLELVGNLVVFCSALLLVIYRKTLTGDVVGFVLSNALNITQTLNWLVRMTSEAETNIVAVERISEYINVENEAPWVTDKRPPADWPRHGEIQFNNYQVRYRPELDLVLKGITCNIKSGEKVGVVGRTGAGKSSLTNCLFRILESAGGQIIIDGIDVASIGLHDLRERLTIIPQDPILFSGSLRMNLDPFNKYSDEEVWRALELAHLRSFVSGLQLGLLSEVTEGGDNLSIGQRQLLCLGRAVLRKSKILVLDEATAAVDLETDSLIQTTIRKEFSQCTVITIAHRLHTIMDSDKIMVLDNGKIVEYGSPEELLSNRGSFYLMAKEAGIENVNHTEL"}}, "key": {"[1]": {"target": "T1, ATP-binding cassette sub-family C member 2 (Rattus norvegicus, UniProt Q63120)", "assay": "TP_TRANSPORTER: inhibition of DNP-SG uptake (DNP-SG: 1 uM, LFLX: 10000uM) in bile canalicular membrane vesicles from SD rat", "assay_type": "functional, cell membranes, Sprague-Dawley, Bile canalicular membrane vesicle"}, "[2]": {"target": "T1, ATP-binding cassette sub-family C member 2", "assay": "TP_TRANSPORTER: inhibition of DNP-SG uptake (DNP-SG: 1 uM, LFLX: 10000uM) in bile canalicular membrane vesicles from EHBR rat", "assay_type": "functional, cell membranes, Bile canalicular membrane vesicle"}, "[3]": {"target": "T1, ATP-binding cassette sub-family C member 2", "assay": "TP_TRANSPORTER: inhibition of DNP-SG uptake in bile canalicular membrane vesicles from SD rat", "assay_type": "functional, cell membranes, Sprague-Dawley, Bile canalicular membrane vesicle"}, "[4]": {"target": "T1, ATP-binding cassette sub-family C member 2", "assay": "TP_TRANSPORTER: uptake in bile canalicular membrane vesicles from EHBR rat", "assay_type": "functional, cell membranes, Bile canalicular membrane vesicle"}, "[5]": {"target": "T1, ATP-binding cassette sub-family C member 2", "assay": "TP_TRANSPORTER: uptake in bile canalicular membrane vesicles from SD rat", "assay_type": "functional, cell membranes, Sprague-Dawley, Bile canalicular membrane vesicle"}, "[6]": {"target": "T1, ATP-binding cassette sub-family C member 2", "assay": "TP_TRANSPORTER: inhibition of DNP-SG uptakee (DNP-SG: 1 uM, OFLX: 10000 uM) in bile canalicular membrane vesicles from SD rat", "assay_type": "functional, cell membranes, Sprague-Dawley, Bile canalicular membrane vesicle"}, "[7]": {"target": "T1, ATP-binding cassette sub-family C member 2", "assay": "TP_TRANSPORTER: inhibition of DNP-SG uptakee (DNP-SG: 1 uM, SPFX: 3000 uM) in bile canalicular membrane vesicles from SD rat", "assay_type": "functional, cell membranes, Sprague-Dawley, Bile canalicular membrane vesicle", "set-up": "scale not given: the % may be the effect or the level left"}, "[8]": {"target": "ATP-binding cassette sub-family C member 2 (ABCC2/Mrp2) (Rattus norvegicus, UniProt Q63120)", "assay": "TP_TRANSPORTER: inhibition of DNP-SG uptakee (DNP-SG: 1 uM, SPFX: 3000 uM) in bile canalicular membrane vesicles from EHBR rat", "assay_type": "functional, cell membranes, Bile canalicular membrane vesicle", "set-up": "scale not given: the % may be the effect or the level left", "conditions": "probe DNP-SG (1 uM), read-out: Activity"}, "[9]": {"substrate": "Cc1c(F)c(N2CCNC(C)C2)cc2c1c(=O)c(C(=O)O[C@@H]1O[C@H](C(=O)O)[C@@H](O)[C@H](O)[C@H]1O)cn2C1CC1", "assay": "TP_TRANSPORTER: uptake, high affinity component in bile canalicular membrane vesicles from SD rat", "assay_type": "functional, cell membranes, Sprague-Dawley, Bile canalicular membrane vesicle"}}}
{"molecule": "CCn1cc(C(=O)O)c(=O)c2cc(F)c(N3CCNC(C)C3)c(F)c21", "note": "(stereo not given) [LOMEFLOXACIN]", "values": [{"measurement": "Activity", "setting": "[1]", "result": "inhibitor [(at a rough estimate) 50 % of control]"}, {"measurement": "Activity", "setting": "[2]", "result": "inhibitor [(at a rough estimate) 50 % of control]"}]}
{"molecule": "Cc1c(F)c(N2CCNC(C)C2)cc2c1c(=O)c(C(=O)O[C@@H]1O[C@H](C(=O)O)[C@@H](O)[C@H](O)[C@H]1O)cn2C1CC1", "note": "(stereo not given in full) [GREPAFLOXACIN GLUCURONIDE]", "values": [{"measurement": "Ki", "setting": "[3]", "result": 9.2, "unit": "µM"}]}
{"molecule": "Cc1c(F)c(N2CCNC(C)C2)cc2c1c(=O)c(C(=O)O)cn2C1CC1", "note": "(stereo not given) [GREPAFLOXACIN]", "values": [{"measurement": "Ki", "setting": "[3]", "result": 1890, "unit": "µM"}, {"measurement": "Activity", "setting": "[4]", "result": "substrate [+]"}, {"measurement": "Activity", "setting": "[5]", "result": "substrate [+]"}]}
{"molecule": "CC1COc2c(N3CCN(C)CC3)c(F)cc3c(=O)c(C(=O)O)cn1c23", "note": "(stereo not given) [OFLOXACIN]", "values": [{"measurement": "Activity", "setting": "[6]", "result": "inhibitor [(at a rough estimate) 50 % of control]"}]}
{"molecule": "C[C@@H]1CN(c2c(F)c(N)c3c(=O)c(C(=O)O)cn(C4CC4)c3c2F)C[C@H](C)N1", "note": "[SPARFLOXACIN]", "values": [{"measurement": "Activity", "setting": "[7]", "result": 60, "unit": "%"}, {"measurement": "activity at 3000 µM", "setting": "[8]", "result": 60, "unit": "%"}]}
{"molecule": "B1", "values": [{"measurement": "Km", "setting": "[9]", "result": 7.2, "unit": "µM"}]}
